For the first test, the system named is MV4:11 human cancer cell lines. Kind of test: Cellular viability / anti-proliferative activity, CellTiter-Glo, 5 day protocol. The format is cell-based. The following applies: Homo sapiens, MV4-11, 120 h, MV4:11 cells; 5 day incubation; CellTiter-Glo; mean of minimum two replicates; read-out: GI50 on cellular proliferation of MV4:11 human cancer cell lines. Put shortly:
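Cells seeded at 200 per well (7200 cells/mL) with compound in 2-fold serial dilutions from 30 μM top (22 points), 0.3% DMSO final. Viability read by CellTiter-Glo luminescence after 5 days; GI50 from sigmoidal dose-response fit, mean of at least two replicates.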
(ATP-based viability assays read luminescence as a measure of living cells.)
As for `COc1cc(CN2CCc3c(cc(Cn4cnn(C)c4=N)cc3-c3ccc(F)cc3C)C2=O)cc(OC)c1` [Example 121, 2-(3,5-Dimethoxybenzyl)-5-(4-fluoro-2-methylphenyl)-7-((5-imino-1-methyl-1,5-dihydro-4H-1,2,4-triazol-4-yl)methyl)-3,4-dihydroisoquinolin-1(2H)-one], the GI50 worked out at 134 nM.
Turning to `COc1cc(CN2CCc3c(cc(Cn4cnn(C)c4=N)cc3-c3cn(C)nc3C(F)(F)F)C2=O)cc(OC)c1` [Example 122, 2-(3,5-Dimethoxybenzyl)-7-((5-imino-1-methyl-1,5-dihydro-4H-1,2,4-triazol-4-yl)methyl)-5-(1-methyl-3-(trifluoromethyl)-1H-pyrazol-4-yl)-3,4-dihydroisoquinolin-1(2H)-one], the GI50 was under 50 nM.
For the compound `CCn1cc(-c2cc(Cn3cnn(C)c3=N)cc3c2CCN(Cc2cc(OC)ccn2)C3=O)c(C(F)(F)F)n1` [Example 123, 5-(1-Ethyl-3-(trifluoromethyl)-1H-pyrazol-4-yl)-7-((5-imino-1-methyl-1,5-dihydro-4H-1,2,4-triazol-4-yl)methyl)-2-((4-methoxypyridin-2-yl)methyl)-3,4-dihydroisoquinolin-1(2H)-one], the GI50 is under 50 nM.
Regarding `COc1cc(CN2CCc3c(cc(Cn4cnn(C)c4=N)cc3-c3ncc(F)cc3C)C2=O)cc(OC)c1` [Example 124, 2-(3,5-Dimethoxybenzyl)-5-(5-fluoro-3-methylpyridin-2-yl)-7-((5-imino-1-methyl-1,5-dihydro-4H-1,2,4-triazol-4-yl)methyl)-3,4-dihydroisoquinolin-1(2H)-one], the GI50 is 935 nM.
Take `COc1ccnc(CN2CCc3c(cc(Cn4nc5ccccn5c4=N)cc3-c3cn(C)nc3C(F)(F)F)C2=O)c1` [Example 125, 7-((3-Imino-[1,2,4]triazolo[4,3-a]pyridin-2(3H)-yl)methyl)-2-((4-methoxypyridin-2-yl)methyl)-5-(1-methyl-3-(trifluoromethyl)-1H-pyrazol-4-yl)-3,4-dihydroisoquinolin-1(2H)-one]: the GI50 is over 938 nM.
On to `Cc1ccnc([C@H](C2CC2)N2CCc3c(cc(Cn4cnn(C)c4=N)cc3-c3ccc(F)cc3C)C2=O)c1` [Example 126, (S)-2-(Cyclopropyl(4-methylpyridin-2-yl)methyl)-5-(4-fluoro-2-methylphenyl)-7-((5-imino-1-methyl-1,5-dihydro-4H-1,2,4-triazol-4-yl)methyl)-3,4-dihydroisoquinolin-1(2H)-one], for which the GI50 was under 50 nM.
The same measure, in the same setting: then `COc1cc(CN2CCc3c(cc(Cn4cnn(C)c4=N)cc3-c3ccc(C)nc3C)C2=O)cc(OC)c1` [Example 127, 2-(3,5-Dimethoxybenzyl)-5-(2,6-dimethylpyridin-3-yl)-7-((5-imino-1-methyl-1,5-dihydro-4H-1,2,4-triazol-4-yl)methyl)-3,4-dihydroisoquinolin-1(2H)-one], with 345 nM.
With `CCn1cc(-c2cc(Cn3cnn(C)c3=N)cc3c2CCN(Cc2cc(C)nn2C)C3=O)c(C(F)(F)F)n1` [Example 128, 2-((1,3-Dimethyl-1H-pyrazol-5-yl)methyl)-7-((5-imino-1-methyl-1,5-dihydro-4H-1,2,4-triazol-4-yl)methyl)-5-(1-ethyl-3-(trifluoromethyl)-1H-pyrazol-4-yl)-3,4-dihydroisoquinolin-1(2H)-one], the GI50 was over 938 nM.
Turning to `CCc1ccnc(CN2CCc3c(cc(Cn4cnn(C)c4=N)cc3-c3cn(CC)nc3C(F)(F)F)C2=O)c1` [Example 129, 5-(1-Ethyl-3-(trifluoromethyl)-1H-pyrazol-4-yl)-2-((4-ethylpyridin-2-yl)methyl)-7-((5-imino-1-methyl-1,5-dihydro-4H-1,2,4-triazol-4-yl)methyl)-3,4-dihydroisoquinolin-1(2H)-one], the GI50 is under 50 nM.
Same read-out and setting: the result for `COc1ccnc(CN2CCc3c(cc(Cn4cnsc4=N)cc3-c3cn(C)nc3C(F)(F)F)C2=O)c1` [Example 130, 7-((5-Imino-1,2,4-thiadiazol-4(5H)-yl)methyl)-2-((4-methoxypyridin-2-yl)methyl)-5-(1-methyl-3-(trifluoromethyl)-1H-pyrazol-4-yl)-3,4-dihydroisoquinolin-1(2H)-one] reads 845 nM.
As for `COc1cc(CN2CCc3cc(F)c(CNC4=NCCN4)cc3C2=O)cc(OC)c1` [Example 133, 7-(((4,5-Dihydro-1H-imidazol-2-yl)amino)methyl)-2-(3,5-dimethoxybenzyl)-6-fluoro-3,4-dihydroisoquinolin-1(2H)-one], the GI50 came to 173 nM.
Take `COc1ccnc(CN2CCc3c(cc(CNC4=NCCO4)cc3-c3cn(C)nc3C)C2=O)c1` [Example 134, 7-(((4,5-Dihydrooxazol-2-yl)amino)methyl)-5-(1,3-dimethyl-1H-pyrazol-4-yl)-2-((4-methoxypyridin-2-yl)methyl)-3,4-dihydroisoquinolin-1(2H)-one]: the GI50 is over 938 nM.
On the same count and under the same terms, then `COc1ccnc(CN2CCc3c(cc(CNc4nnc5ccccn45)cc3-c3cn(C)nc3C(F)(F)F)C2=O)c1` [Example 135, 7-(([1,2,4]Triazolo[4,3-a]pyridin-3-ylamino)methyl)-2-((4-methoxypyridin-2-yl)methyl)-5-(1-methyl-3-(trifluoromethyl)-1H-pyrazol-4-yl)-3,4-dihydroisoquinolin-1(2H)-one], with over 938 nM.
On the same count and under the same terms, then `COc1ccnc(CN2Cc3c(cc(Cn4ccn(C)c4=N)cc3C3CC3)C2=O)c1` [Example 136, 4-Cyclopropyl-6-((2-imino-3-methyl-2,3-dihydro-1H-imidazol-1-yl)methyl)-2-((4-methoxypyridin-2-yl)methyl)isoindolin-1-one], with over 938 nM; and `CCn1cc(-c2cc(Cn3ccn(C)c3=N)cc3c2CN(Cc2cc(OC)ccn2)C3=O)c(C(F)(F)F)n1` [Example 137, 4-(1-Ethyl-3-(trifluoromethyl)-1H-pyrazol-4-yl)-6-((2-imino-3-methyl-2,3-dihydro-1H-imidazol-1-yl)methyl)-2-((4-methoxypyridin-2-yl)methyl)isoindolin-1-one], with 944 nM; and `COc1ccnc(CN2Cc3c(cc(Cn4ccn(C)c4=N)cc3-c3ccc(F)cc3C)C2=O)c1` [Example 138, 4-(4-Fluoro-2-methylphenyl)-6-((2-imino-3-methyl-2,3-dihydro-1H-imidazol-1-yl)methyl)-2-((4-methoxypyridin-2-yl)methyl)isoindolin-1-one], with 2280 nM.
The same measure, in the same setting: the result for `COc1ccnc(CN2Cc3c(cc(Cn4ccn(C)c4=N)cc3-c3cccnc3C)C2=O)c1` [Example 139, 6-((2-Imino-3-methyl-2,3-dihydro-1H-imidazol-1-yl)methyl)-2-((4-methoxypyridin-2-yl)methyl)-4-(2-methylpyridin-3-yl)isoindolin-1-one] reads over 938 nM; that for `COc1cc(CN2CCCc3c(cc(Cn4ccn(C)c4=N)cc3-c3ccc(F)cc3C)C2=O)cc(OC)c1` [Example 140, 2-(3,5-Dimethoxybenzyl)-6-(4-fluoro-2-methylphenyl)-8-((2-imino-3-methyl-2,3-dihydro-1H-imidazol-1-yl)methyl)-2,3,4,5-tetrahydro-1H-benzo[c]azepin-1-one], 200 nM.
For the compound `COc1cc(CN2CCCc3c(cc(Cn4ccnc4C)cc3-c3ccc(F)cc3C)C2=O)cc(OC)c1` [Example 141, 2-(3,5-dimethoxybenzyl)-6-(4-fluoro-2-methylphenyl)-8-((2-methyl-1H-imidazol-1-yl)methyl)-2,3,4,5-tetrahydro-1H-benzo[c]azepin-1-one], the GI50 is over 938 nM.
The same measure, in the same setting: then `Cc1cc([C@H](C)N2CCc3c(cc(CNc4cccc(=O)[nH]4)cc3-c3cn(C)nc3C(F)(F)F)C2=O)ccc1F` [Example 142, (S)-2-(1-(4-Fluoro-3-methylphenyl)ethyl)-5-(1-methyl-3-(trifluoromethyl)-1H-pyrazol-4-yl)-7-(((6-oxo-1,6-dihydropyridin-2-yl)amino)methyl)-3,4-dihydroisoquinolin-1(2H)-one], with over 938 nM; and `Cc1cc([C@H](C)N2CCc3c(cc(Cn4ccn(C)c4=N)cc3-c3cn(C)nc3C)C2=O)ccc1F` [Example 143, (S)-5-(1,3-Dimethyl-1H-pyrazol-4-yl)-2-(1-(4-fluoro-3-methylphenyl)ethyl)-7-((2-imino-3-methyl-2,3-dihydro-1H-imidazol-1-yl)methyl)-3,4-dihydroisoquinolin-1(2H)-one], with under 50 nM.
With `COc1cc(CN2CCc3c(cc(Cn4ncnc4C)cc3-c3ccc(F)cc3C)C2=O)cc(OC)c1` [Example 144, 2-(3,5-Dimethoxybenzyl)-5-(4-fluoro-2-methylphenyl)-7-((5-methyl-1H-1,2,4-triazol-1-yl)methyl)-3,4-dihydroisoquinolin-1(2H)-one], the GI50 is over 938 nM.
As to `COc1cc(CN2CCc3c(cc(Cn4cnnc4C)cc3-c3ccc(F)cc3C)C2=O)cc(OC)c1` [Example 145, 2-(3,5-Dimethoxybenzyl)-5-(4-fluoro-2-methylphenyl)-7-((3-methyl-4H-1,2,4-triazol-4-yl)methyl)-3,4-dihydroisoquinolin-1(2H)-one], the GI50 is over 938 nM.

The same test, now with this note: Homo sapiens, MV4-11, 120 h, read-out: GI50 on cellular proliferation of MV4:11 human cancer cell lines.
As to `COc1ccnc(CN2CCc3c(cc(Cc4cncn4C)cc3-c3cn(C)nc3C(F)(F)F)C2=O)c1` [Example 131, 2-((4-Methoxypyridin-2-yl)methyl)-7-((1-methyl-1H-imidazol-5-yl)methyl)-5-(1-methyl-3-(trifluoromethyl)-1H-pyrazol-4-yl)-3,4-dihydroisoquinolin-1(2H)-one], the GI50 was over 938 nM.
The same measure, in the same setting: the result for `COc1ccnc(CN2CCc3c(cc(Cc4ncc[nH]4)cc3-c3cn(C)nc3C(F)(F)F)C2=O)c1` [Example 132, 7-((1H-Imidazol-2-yl)methyl)-2-((4-methoxypyridin-2-yl)methyl)-5-(1-methyl-3-(trifluoromethyl)-1H-pyrazol-4-yl)-3,4-dihydroisoquinolin-1(2H)-one] reads under 50 nM.

The values are drawn from patent US11999716B2, “WDR5 inhibitors and modulators” (priority 2018, dated 2024).
